Assay results reported in patent US8685924B2, “Preventives/remedies for stress urinary incontinence and method of screening the same” (Takeda Pharmaceutical Company Limited, priority 2004, dated 2014).

Assays:
Assay type in all cases: in vivo, rat
[1] = tested on: urethane-anesthetized female rats; experiment: Leak point pressure by direct compressing of the bladder (Example 4); conditions: for leak point pressure after drug administration / leak point pressure increase / leak point pressure before drug administration: i.v., mean ± SEM; for leak point pressure after drug administration: 20 min later; for leak point pressure before drug administration: baseline; for effect on leak point pressure: intravenous administration
Protocol: SD female rats (body weight 180-350 g) were anesthetized with urethane (Wako Pure Chemical Industries, Ltd.), and halothane (Takeda Pharmaceutical Company Limited) anesthesia was added when necessary during operation.
The spinal cord was transected at T8-9 level to eliminate the reflex voiding. The lower abdomen was incised in the median line, a catheter for intravesical pressure measurement (PE-90, Clay Adams) was inserted into the bladder and secured with a ligature, and the intravesical pressure was measured via a pressure transducer. Urine was emptized in advance by bilaterally pressing the bladder with two swabs, and a 0.1% Evans blue (Merck) solution (0.4 mL) was injected into the bladder. The bladder was gradually compressed bilaterally with two swabs, and the intravesical pressure upon saline leakage from the urethral orifice was measured and defined as a leak point pressure. The measurement of the leak point pressure was repeated, and the average value of the final five stable measures was taken as the value before drug administration. Thereafter, the drug was intravenously administered, the leak point pressure was measured again 20 min later, and the value after the drug administration was determined. DOI, mCPP and eltoprazine were dissolved in saline, and other drugs were dissolved in DMA/PEG400 (1:1), and intravenously administered at 1 ml/kg and 0.5 mg/kg, respectively. Depending on the experiment, RS-102221 or SB221284 (showing serotonin 5-HT2C receptor antagonist activity) was administered, 5 min later, WAY-161503 or WAY-163909 was administered, leak point pressure was measured 10 min later, and a competitive assay with the action of WAY-161503 or WAY-163909 was performed. RS-102221 and SB221284 were both dissolved in DMA/PEG400 (1:1), and intravenously administered at 0.5 ml/kg.

[2] = tested on: urethane-anesthetized female rats; experiment: Urethral contractile responses induced by intravesical pressure increase (Example 5); conditions: for urethral contractile responses before administration: baseline; for urethral contractile responses before administration / urethral contractile responses after administration: mean ± SEM of 5 cases; for urethral contractile responses after administration: 5 min later; for effect on urethral contractile responses during elevation of intravesical pressure: intravenous, duloxetine 10 mg/kg, WAY161503 0.3 mg/kg
Protocol: (§1) SD female rats (body weight 180-350 g) were anesthetized with urethane (Wako Pure Chemical Industries, Ltd.), and the spinal cord was transected at T8-9 level to eliminate the reflex voiding.
Halothane (Takeda Pharmaceutical Company Limited) anesthesia was added when necessary during operation. After laparotomy, the bladder neck was tied with a suture thread and then a catheter (PE-90, Clay Adams) was inserted into the bladder and secured with a ligature. The other end of the bladder catheter was connected to a pressure transducer and saline storage reservoir (60 ml syringe) via a three-way stopcock. A microchip-transducer-catheter (SPR-524, Millar Instruments Inc.) was inserted from the meatus urethra. toward the bladder. Using the scale written on the catheter surface, the transducer part was set in the urethra at 12.5-15.0 mm from the urethral orifice with its side-mounted sensor facing the inner urethral surface in the 3 o'clock position.
Topical pressure changes in the urethra (hereinafter to be conveniently indicated as intraurethral pressure) measured by a microchip-transducer were input in a computer via an amplifier (blood pressure amplification unit AP-641G; NIHON KODEN) and an analog-to-digital converter (MP-100; biopack; sampled at 500 Hz) and recorded on a hard disc. […] The response of the urethra induced by the intravesical pressure increase was measured 3 times and the average of the final two measures was taken as the value before the drug administration.
The evaluation parameters were a resting intraurethral pressure and a reflex urethral contractile responses. An average intraurethral pressure per 1 sec was calculated, and the value immediately before intravesical pressure increase was taken as the resting intraurethral pressure, and the value obtained by subtracting the resting intraurethral pressure from the maximum value during intravesical pressure increase was taken as the urethral responses. After measurement of the response before drug administration, WAY-161503 (0.3 mg/kg), which is a serotonin 5-HT2C receptor agonist, or duloxetine (10 mg/kg) was intravenously administered, the intravesical pressure was increased again 5 min later, and the responses of the urethra were measured. The both drugs were dissolved in DMA-PEG400 (1:1), and administered at 0.5 ml/kg.

[3] = tested on: urethane-anesthetized female rats; experiment: Leak point pressure by intravesical pressure-clamp method (Example 6); conditions: for leak point pressure after drug administration / leak point pressure before drug administration: i.v., mean ± SEM; for leak point pressure after drug administration: 10 min later; for leak point pressure before drug administration: baseline; for effect on leak point pressure: intravesical pressure-clamp method
Protocol: as §1
Halothane (Takeda Pharmaceutical Company Limited) anesthesia was added when necessary during operation. After laparotomy, the bladder neck was tied with a suture thread and then a catheter (PE-90, Clay Adams) was inserted into the bladder and secured with a ligature. The other end of the bladder catheter was connected to a pressure transducer and saline storage reservoir (60 ml syringe) via a three-way cock.
Changes in the intravesical pressure measured by a transducer were input in a computer via an amplifier (blood pressure amplification unit AP-641G; NIHON KODEN) and an analog-to-digital cinverter (MP-100; biopack) and recorded on a hard disc. The intravesical pressure was raised for 90 sec by setting the saline storage reservoir at a given height, and the presence or absence of saline leakage from the urethral orifice was observed. The intravesical pressure was raised every 2.5 cmH2O and, after 90 sec observation period, the intravesical pressure was once returned to 0 cmH2O, after which the next step was performed. The intravesical pressure at which the saline leakage from the urethral orifice was observed was taken as the leak point pressure. The measurement of the leak point pressure was repeated and the average of the final three measures was taken as the value before the drug administration. The drug was intravenously administered, and the leak point pressure was measured again 10 min later. The drug was dissolved in DMA-PEG400 (1:1), and administered at 0.5 ml/kg.

In the case of `O=C1Nc2cc(Cl)c(Cl)cc2N2CCNCC12` (stereo not drawn) [WAY-161503], the “leak point pressure after drug administration” value ([1]; 0.03 mg/kg) is reported as 62.0 ± 5.8 cmH2O, the “leak point pressure increase” value ([1]; 0.03 mg/kg) is reported as 7.1 ± 2.4 cmH2O and the “leak point pressure after drug administration” value ([1]; 0.1 mg/kg) is reported as 66.1 ± 2.8 cmH2O. For the same compound, the “leak point pressure increase” value ([1]; 0.1 mg/kg) was 11.5 ± 1.8 cmH2O, the “leak point pressure after drug administration” value ([1]; 0.3 mg/kg) was 77.7 ± 3.6 cmH2O and the “leak point pressure increase” value ([1]; 0.3 mg/kg) was 22.0 ± 3.4 cmH2O. For the same compound, the “leak point pressure before drug administration” value ([1]; dose group 0.03 mg/kg) was 54.9 ± 6.1 cmH2O, the “leak point pressure before drug administration” value ([1]; dose group 0.1 mg/kg) was 54.7 ± 2.5 cmH2O and the “leak point pressure before drug administration” value ([1]; dose group 0.3 mg/kg) was 55.7 ± 3.8 cmH2O. For the same compound, the “effect on leak point pressure” value [1] was “dose-dependently increased the leak point pressure”, the “urethral contractile responses before administration” value ([2]; increase in intravesical pressure to 25 cmH2O, dose group 0.3 mg/kg i.v.) was 7.0 ± 1.4 cmH2O and the “urethral contractile responses before administration” value ([2]; increase in intravesical pressure to 50 cmH2O, dose group 0.3 mg/kg i.v.) was 12.8 ± 2.4 cmH2O. For the same compound, the “urethral contractile responses after administration” value ([2]; increase in intravesical pressure to 25 cmH2O, 0.3 mg/kg i.v.) was 11.3 ± 1.8 cmH2O, the “urethral contractile responses after administration” value ([2]; increase in intravesical pressure to 50 cmH2O, 0.3 mg/kg i.v.) was 19.2 ± 3.4 cmH2O and the “effect on urethral contractile responses during elevation of intravesical pressure” value [2] was “significant increase in the urethral contractile responses”. For the same compound, the “leak point pressure after drug administration” value ([3]; 0.01 mg/kg) was 37.3 ± 3.5 cmH2O, the “leak point pressure after drug administration” value ([3]; 0.03 mg/kg) was 41.2 ± 3.0 cmH2O and the “leak point pressure after drug administration” value ([3]; 1 mg/kg) was 43.6 ± 3.2 cmH2O. For the same compound, the “leak point pressure before drug administration” value ([3]; dose group 0.01 mg/kg) was 33.4 ± 3.4 cmH2O, the “leak point pressure before drug administration” value ([3]; dose group 0.03 mg/kg) was 34.8 ± 3.2 cmH2O and the “leak point pressure before drug administration” value ([3]; dose group 1 mg/kg) was 34.8 ± 3.0 cmH2O. The “effect on leak point pressure” value [3] was “increased the leak point pressure”.
`CNCC[C@H](Oc1cccc2ccccc12)c1cccs1` [duloxetine] was tested, and the “leak point pressure after drug administration” value ([1]; 0.01 mg/kg) was 60.5 ± 5.1 cmH2O, the “leak point pressure increase” value ([1]; 0.01 mg/kg) was 2.4 ± 2.6 cmH2O and the “leak point pressure after drug administration” value ([1]; 0.03 mg/kg) was 67.8 ± 2.9 cmH2O. For the same compound, the “leak point pressure increase” value ([1]; 0.03 mg/kg) was 6.5 ± 1.6 cmH2O, the “leak point pressure after drug administration” value ([1]; 0.1 mg/kg) was 72.6 ± 3.4 cmH2O and the “leak point pressure increase” value ([1]; 0.1 mg/kg) was 9.3 ± 1.2 cmH2O. For the same compound, the “leak point pressure after drug administration” value ([1]; 0.3 mg/kg) was 73.3 ± 3.9 cmH2O, the “leak point pressure increase” value ([1]; 0.3 mg/kg) was 8.8 ± 2.1 cmH2O and the “leak point pressure after drug administration” value ([1]; 1 mg/kg) was 75.0 ± 4.0 cmH2O. For the same compound, the “leak point pressure increase” value ([1]; 1 mg/kg) was 13.9 ± 1.8 cmH2O, the “leak point pressure before drug administration” value ([1]; dose group 0.01 mg/kg) was 58.1 ± 6.0 cmH2O and the “leak point pressure before drug administration” value ([1]; dose group 0.03 mg/kg) was 61.3 ± 3.3 cmH2O. The “leak point pressure before drug administration” value ([1]; dose group 0.1 mg/kg) was 63.3 ± 3.8 cmH2O, the “leak point pressure before drug administration” value ([1]; dose group 0.3 mg/kg) was 64.5 ± 3.5 cmH2O and the “leak point pressure before drug administration” value ([1]; dose group 1 mg/kg) was 61.1 ± 3.4 cmH2O. For the same compound, the “effect on leak point pressure” value [1] was “increased the leak point pressure”, the “urethral contractile responses before administration” value ([2]; increase in intravesical pressure to 25 cmH2O, dose group 10 mg/kg i.v.) was 8.5 ± 0.5 cmH2O and the “urethral contractile responses before administration” value ([2]; increase in intravesical pressure to 50 cmH2O, dose group 10 mg/kg i.v.) was 13.4 ± 2.1 cmH2O. The “urethral contractile responses after administration” value ([2]; increase in intravesical pressure to 25 cmH2O, 10 mg/kg i.v.) was 11.4 ± 0.6 cmH2O, the “urethral contractile responses after administration” value ([2]; increase in intravesical pressure to 50 cmH2O, 10 mg/kg i.v.) was 17.8 ± 2.2 cmH2O and the “effect on urethral contractile responses during elevation of intravesical pressure” value [2] was “enhanced the urethral contractile responses”. The “leak point pressure after drug administration” value ([3]; 0.001 mg/kg) was 38.2 ± 3.7 cmH2O, the “leak point pressure after drug administration” value ([3]; 0.01 mg/kg) was 42.8 ± 4.9 cmH2O and the “leak point pressure before drug administration” value ([3]; dose group 0.001 mg/kg) was 36.5 ± 4.2 cmH2O. For the same compound, the “leak point pressure before drug administration” value ([3]; dose group 0.01 mg/kg) was 37.0 ± 4.5 cmH2O and the “effect on leak point pressure” value [3] was “increased the leak point pressure”.
